In brackets after ≈: the same amount, converted by molar mass. Counter-ions that a name gives are not always drawn. Like-named read-outs stand apart in the source and are kept apart here.
What was measured:
Type in all cases: cell-based
[1] = system: Pseudomonas aeruginosa 5D58-1; test: minimum inhibitory concentration (MIC); conditions: 5D581, Tables 2A, 2B
Protocol: (§1) The minimum inhibitory concentration (MIC) of the compounds obtained in the above Examples were measured according to the standard method of Japan Society of Chemotherapy.

[2] = system: Enterobacter cloacae 908RN; test: minimum inhibitory concentration (MIC)
Protocol: as §1

[3] = system: Citrobacter freundii GN7391; test: minimum inhibitory concentration (MIC)
Protocol: as §1

[4] = system: Pseudomonas aeruginosa 4au542; test: minimum inhibitory concentration (MIC); conditions: Tables 2A, 2B
Protocol: as §1

[5] = system: Enterobacter cloacae GN7471; test: minimum inhibitory concentration (MIC)
Protocol: as §1

[6] = system: Staphylococcus aureus IAA498; test: minimum inhibitory concentration (MIC); conditions: Tables 2A, 2B
Protocol: as §1

Escherichia coli GN5482 = test: minimum inhibitory concentration (MIC); conditions: Tables 2A, 2B
Protocol: as §1

Proteus vulgris GN7919 = test: minimum inhibitory concentration (MIC)
Protocol: as §1

[7] = system: Klebsiella pneumoniae 4at521; test: minimum inhibitory concentration (MIC); conditions: Tables 2A, 2B
Protocol: as §1

[8] = system: Pseudomonas cepacia OF189; test: minimum inhibitory concentration (MIC); conditions: Burkholderia cepacia, Tables 2A, 2B
Protocol: as §1

[9] = system: Pseudomonas aeruginosa GN10362; test: minimum inhibitory concentration (MIC); conditions: Tables 2A, 2B
Protocol: as §1

[10] = system: Serratia marcescens GN10857; test: minimum inhibitory concentration (MIC); conditions: Tables 2A, 2B
Protocol: as §1

Escherichia coli ML4704 = test: minimum inhibitory concentration (MIC)
Protocol: as §1

[11] = system: Pseudomonas maltophilia OF247; test: minimum inhibitory concentration (MIC); conditions: Stenotrophomonas maltophilia, Tables 2A, 2B
Protocol: as §1

[12] = system: Staphylococcus aureus Smith; test: minimum inhibitory concentration (MIC), standard method of Japan Society of Chemotherapy; conditions: Tables 2A, 2B
Protocol: as §1

[13] = Citrobacter freundii GN7391, Tables 2A, 2B, read-out: MIC
[14] = Enterobacter cloacae GN7471, Tables 2A, 2B, read-out: MIC
[15] = Proteus vulgris GN7919, Tables 2A, 2B, read-out: MIC
[16] = Escherichia coli ML4704, Tables 2A, 2B, read-out: MIC
[17] = Enterobacter cloacae 908RN, Tables 2A, 2B

Row | Compound | MIC [1] [µg/mL] | MIC [3, 13] [µg/mL] | MIC [4] [µg/mL] | MIC [5, 14] [µg/mL] | MIC [6] [µg/mL] | MIC (Escherichia coli GN5482) [µg/mL] | MIC (Proteus vulgris GN7919; [15]) [µg/mL] | MIC [7] [µg/mL] | MIC [8] [µg/mL] | MIC [9] [µg/mL] | MIC [10] [µg/mL] | MIC (Escherichia coli ML4704; [16]) [µg/mL] | MIC [11] [µg/mL] | MIC [12] [µg/mL] | MIC [2] [µg/mL] | MIC ([3]; Citrobacter freundii, GN7391) [µg/mL] | MIC ([5]; Enterobacter cloacae, GN7471) [µg/mL] | MIC (Proteus vulgris GN7919) [µg/mL] | MIC (Escherichia coli ML4704; Escherichia coli, ML4704) [µg/mL] | MIC [2, 17] [µg/mL] | further results
1 | CON=C(C(=O)NC1C(=O)N2C(C(=O)O)=C(CSc3cc(CO)nc4nc(C)nn34)CSC12)c1csc(N)n1 (stereo not drawn) [Example 38] | 100 (≈ 169 µM) | 25 (≈ 42.3 µM) | > 100 | 3.13 (≈ 5.29 µM) | 12.5 (≈ 21.1 µM) | 0.1 (≈ 0.169 µM) | 6.25 (≈ 10.6 µM) | 0.78 (≈ 1.32 µM) | 25 (≈ 42.3 µM) | 100 (≈ 169 µM) | 25 (≈ 42.3 µM) | 0.05 (≈ 0.0845 µM) | 50 (≈ 84.5 µM) | 0.78 (≈ 1.32 µM) |  |  |  |  |  |  | MIC ([2]; Enterobacter cloacae 908RN, Tables 2A, 2B, read-out: MIC): 50 µg/mL (≈ 84.5 µM)
2 | CC(C)(ON=C(C(=O)NC1C(=O)N2C(C(=O)[O-])=C(CSc3cc(CO)nc4nc(CO)nn34)CS[C@H]12)c1csc(N)n1)C(=O)NNC(=O)c1ccc(O)c(O)c1.[Na+] (stereo partly drawn) [Example 42, sodium 7-{2-[2-amino-1,3-thiazol-4-yl]-2[1-(3-(3,4-dihydroxybenzoyl)carbazoyl)-1-methylethoxyimino]acetamido}-3-[(2,5-bis(hydroxymethyl)-s-triazolo[1,5-a]pyrimidin-7 yl)thiomethyl]-3-cephem-4-carboxylate] | 0.1 |  | 0.2 |  | 6.25 | 0.1 |  | 0.2 | 0.025 | 0.1 | 0.39 |  | 0.78 | 3.13 | 3.13 | 6.25 | 1.56 | 3.13 | 0.1 |  | 
3 | Cc1cc(SCC2=C(C(=O)O)N3C(=O)C(NC(=O)C(=NOC(C)(C)C(=O)NN)c4csc(N)n4)C3SC2)n2nc(CO)nc2n1 (stereo not drawn) [Example 43, 7-[2-(2-amino-1,3-thiazol-4-yl)-2-(1-carbazoyl-1-methylethoxyimino)acetamido]-3-[(2-hydroxymethyl5-methyl-s-triazolo[1,5-a]pyrimidin-7-yl)thiomethyl]-3-cephem-4-carboxylate.dihydrochloride] | 25 | 100 | 100 | 25 | 12.5 | 0.39 | 50 | 3.13 | 50 | 25 | 50 | 0.2 | 50 | 6.25 |  |  |  |  |  | > 100 | 
4 | Cc1cc(SCC2=C(C(=O)[O-])N3C(=O)C(NC(=O)C(=NOC(C)(C)C(=O)NN=Cc4ccc(O)c(O)c4)c4csc(N)n4)[C@H]3SC2)n2nc(CO)nc2n1.[Na+] (stereo partly drawn) [Example 44, sodium 7-{2-[2-amino-1,3-thiazol-4-yl]-2-[1-(3-(3,4-dihydroxybenzylidene)carbazoyl)-1-methylethoxyimino]acetamido}-3-[(2-hydroxymethyl-5-methyl-s-triazolo[1,5-a]pyrimidin-7-yl)thiomethyl]-3-cephem-4-carboxylate] | 0.39 |  | 0.78 |  | 6.25 | 0.1 |  | 0.39 | 0.2 | 0.78 | 0.78 |  | 12.5 | 3.13 | 12.5 | 12.5 | 1.56 | 12.5 | 0.39 |  | 
5 | COCc1nc2nc(C)cc(SCC3=C(C(=O)O)N4C(=O)C(NC(=O)C(=NOC(C)(C)C(=O)NN)c5csc(N)n5)C4SC3)n2n1 (stereo not drawn) [Example 47] | 50 (≈ 72.3 µM) | > 100 | > 100 | 50 (≈ 72.3 µM) | 12.5 (≈ 18.1 µM) | 0.78 (≈ 1.13 µM) | 50 (≈ 72.3 µM) | 6.25 (≈ 9.03 µM) | 100 (≈ 145 µM) | 50 (≈ 72.3 µM) | 100 (≈ 145 µM) | 0.2 (≈ 0.289 µM) | 100 (≈ 145 µM) | 6.25 (≈ 9.03 µM) |  |  |  |  |  | > 100 | 

Reference: patent publication US4987129A, “Cephalosporin derivatives” (priority 1987, dated 1991)
